The text below walks through data of US10080774B2, “Oncolytic adenovirus armed with therapeutic genes” (priority 2002, dated 2018).

In brackets after ≈: the same amount, converted by molar mass.

Series [1] concerns U-87 MG xenograft. Briefly: Survival with antiangiogenic compounds, glioma xenograft mouse model. In kind it is in vivo, athymic mice. The following applies: P>0.5 logrank. As for the experimental part:
Testing the effect of antiangiogenic compounds on the survival of human glioma xenograft mouse model. Comparative survival analysis of the anticancer effect of different antiangiogenic treatments have been performed using the U-87 MG xenograft mouse model). PTK787/ZK 222584 was evaluated as a VEGFR inhibitor (Thomas et al., 2003); and imatinib/Glivec as a potent PDGFRβ inhibitor (Manley et al., 2002). Briefly, human glioma cells (5×10^5 U-87 MG) were engrafted into the caudate nucleus of athymic mice using a guide-screw system as previously described (Fueyo et al., 2003). […] Neither group treatment had long-term survivors.

The test system of series [2] is HU-VEC-C. Nature of the series: Tube formation (vascular-like structures) assay. In kind it is cell-based, human. The following applies: 400-800 ng/ML, 18 h. As for the experimental part: This assay will be performed using an in vitro angiogenesis kit (Chemicon, Temecula, Calif.) according to the manufacturer's instructions. Wells in a 96-well plate will be coated with ECMatrix solution, and 5×10^3 cells will be plated in triplicate wells in a volume of 50 μl of EGM (Clonetics Corp.) containing 2% FBS. The cells will be incubated for 18 h at 37° C., and tube formation will be evaluated by phase-contract microscopy. To determine the viability of cells in these assays, cells will be stained with Hoechst 33342 (5 μg/ml, Sigma) and propidium iodide (2.5 μg/ml, Sigma) for 5 min at 37° C. and analyzed by fluorescence microscopy.
These studies were performed to elucidate the role of Ang-2 role in the process of angiogenesis.

Series [3] deals with CAM. Briefly: Angiogenesis in vivo, CAM model. To be noted: 72 h after treatment. Further details: species or system chicken. As for the experimental part: Fertilized chicken eggs (SPAFAS; Charles River Lab., Wilmington, Mass.) will be incubated at 37° C. at 55% humidity for 9 days. An artificial air sac will be created over a region containing small blood vessels in the CAM as described (Brooks et al., 1999). A small window will be cut in the shell after removing 3 ml of albumen. Filter disks (6 mm in diameter) will be coated with cortisone acetate in absolute ethanol (3 mg/mL). The CAM will be locally treated with filter disks saturated with a solution containing bFGF (50 ng/disk; R&D Systems, Minneapolis, Minn.) and VEGF121/rGel (at 1 or 10 nM), rGel (at 1 or 10 nM), or buffer (PBS). The filter will be placed on the CAM in a region with the lowest density of blood vessels, and in the vicinity, as reference, of a large vessel. Angiogenesis will be monitored by photography 3 days after treatment. Images will be captured using an Olympus stereomicroscope (SZ×12) and Spot™ Basic software (Diagnostic Instruments, Inc.). The relative vascular area will be determined by measuring the area taken up by blood vessels. […] The number of blood vessel branch points will be quantify by two researchers, and compared to the treatment controls (Brooks et al., 1999).
Ang-2 inhibits angiogenesis in vivo (CAM model). […] Vascular responses were assessed 72 h later.

Series [4] deals with Tie2 (Homo sapiens, UniProt Q02763). Briefly: Tie2 phosphorylation, immunoprecipitation. In kind it is cell-based. To be noted: U-87 MG. Here is the method:
To explore the regulation of Tie2 signaling by Angs in U-87 MG cells, Tie2 was immunoprecipitated from membrane fractions of U-87 MG cells treated with rAng1 (500 ng/ml) for 10 min, and phosphorylation of Tie2 was addressed using anti-phosphotyrosine antibody.

In series [5] the test system is U251 cells. Briefly: Cell mixing experiments, Tc99O4 uptake after Δ24-NIS infection. Format: cell-based, human. The following applies: U251 infected with Δ24-NIS. As for the experimental part:
Cells incubated with virus for 1.5 h then washed extensively and mixed at different percentages with uninfected U251 cells. Uptake assays were then performed at 48 h and values are given as fold increase (ratios) of Tc^99O4 within the cells compared to control cells.
U251MG and U87MG glioma cell lines are transiently transfected, then incubated with ^99mTcO4. These in vitro techniques are modifications of an assay developed by Petrich et al. (2002). Briefly, cells are plated into 24-well plates and allowed to achieve 90% confluence. Various titers of Δ24-NIS are added, incubating and infecting the cells for 2 h. The cells are then washed, and the assay performed at 24, 48, and 72 h. The cells are pre-incubated at 37° C. for 30 min in 1 ml of HEPES-buffered Hanks balanced salt solution (bHBSS). […] Cellular radioactivity is released with 1 ml ice-cold 100% ethanol for 20 min, and counted in a cross-calibrated gamma counter. Protein content of the 6 wells per cell line are determined using a BCA assay kit.
Because of the concern that an oncolytic virus could destroy the cells expressing the NIS transgene and blunt the ability to concentrate-adequate amounts of radionuclide, a study were performed to determine the percentage of cells required to obtain significant concentrations of isotope. […] The result is shown in FIG. 11 and is expressed as fold increase (ratios) over control cells.

Series [6] deals with T1, EGFRvIII (Homo sapiens, UniProt P00533, DELINS30-297G).
T1 construct: expressed in transfected cells; host or cells: U-87 MG stably transfected with mutant EGFR (U87MG.ΔEGFR; Nishikawa et al., 1994)
Nature of the series: Membrane fluorescence staining with anti-EGFRvIII peptide-FITC, flow cytometry. In kind it is binding. To be noted: 1 μM, 30 min. Here is the method:
Briefly, the inventors performed membrane fluorescence staining of single-cell suspensions after incubating U-87 MG, U87.wtEGFR, and U-87.ΔEGFRvIII (Nishikawa et al., 1994) with the anti-EGFRvIII peptide (PEPCH1)-FITC (1 μM) (Campa et al., 2000) for 30 min. The cells were then washed twice with PBS and then analyzed for fluorescence with an EPICS XL-MCL flow cytometer (Beckman-Coulter Inc., Miami, Fla.) using a 488 nm argon laser for excitation. Fluorescence was detected with a 520 nm band-pass filter, and all cytometric data was analyzed with the System II software (Beckman-Coulter Inc.). Data are shown as the percentages of FICT-positive cells (empty graph) compared to mock-treated cells (solid graphs) from a representative experiment.

The nature of series [7]: Organ uptake after injection of W/Re-188 generator eluant. To be noted: 100 μCi. Format: in vivo. As for the experimental part:
Urine and later fecal accumulation (at 24 hours) is also observed.
Whole-mount sections of animals were prepared after tail vein injection of ^188Re elutant produced by a Rhenium generator at 100 μCi, which provides additional conformation of the anatomic localization of the images provided by gamma camera assessment. […] The bladder where the isotope is being eliminated is also visualized. Individual organs can be harvested and isotope counts can be determined per gram of tissue as a quantitative measure of radionuclide uptake.

Series [8] deals with parental U251MG cells. Nature of the series: Cell viability assay, 5-FC dose response. Format: cell-based. To be noted: Homo sapiens, U-251, 120 h, 5 days. Here is the method:
(§1) Note the shift to the left of the IC50 curve for the hyCD stable-transfected U251MG cells in the presence of 5-FC. IC50 values for both cultures are indicated.
(§2) U251MG and U87MG cell lines were grown to 95% monolayer confluence. The cells were trypsinized and harvested with 0.25% trypsin/EDTA, plated in 6-well tissue culture plates, and allowed to adhere overnight at 37° C. in 5% CO2 humidified incubators. 5-FU or 5-FC in serial 0.5-log concentrations in 100 μl aliquots was added directly to the cells to achieve final concentrations, as previously described (Miller, 2002). Cells were incubated at 37° C. for 5 days and cell viability by cellular respiration was determined using 3-(4,5-methylthiazole-2-yl)-5-(3-carboxymethoxy-phenyl)-2-(4-sulfonyl)-2H-tetrazolium) (Promega, Madison, Wis.) according to the manufacturer's protocol. The cell survival fraction was measured at each drug concentration as the ratio of absorbance at 490 nm relative to untreated cells. This calculation was normalized for background absorbance of the culture medium alone. The cell survival fraction was plotted against the logarithm of the drug concentration, and IC50 values were calculated using a sigmoidal dose-response curve with variable slope in GraphPad Prism 3.01.

In series [9] the test system is hyCD stable-transfected U251MG cells. Nature of the series: Cell viability assay, 5-FC dose response. Format: cell-based, human. As for the experimental part:
as §1, §2

The conditions of series [10]: cited from earlier work.

Chain of Tie2 (Q02763 23-1124): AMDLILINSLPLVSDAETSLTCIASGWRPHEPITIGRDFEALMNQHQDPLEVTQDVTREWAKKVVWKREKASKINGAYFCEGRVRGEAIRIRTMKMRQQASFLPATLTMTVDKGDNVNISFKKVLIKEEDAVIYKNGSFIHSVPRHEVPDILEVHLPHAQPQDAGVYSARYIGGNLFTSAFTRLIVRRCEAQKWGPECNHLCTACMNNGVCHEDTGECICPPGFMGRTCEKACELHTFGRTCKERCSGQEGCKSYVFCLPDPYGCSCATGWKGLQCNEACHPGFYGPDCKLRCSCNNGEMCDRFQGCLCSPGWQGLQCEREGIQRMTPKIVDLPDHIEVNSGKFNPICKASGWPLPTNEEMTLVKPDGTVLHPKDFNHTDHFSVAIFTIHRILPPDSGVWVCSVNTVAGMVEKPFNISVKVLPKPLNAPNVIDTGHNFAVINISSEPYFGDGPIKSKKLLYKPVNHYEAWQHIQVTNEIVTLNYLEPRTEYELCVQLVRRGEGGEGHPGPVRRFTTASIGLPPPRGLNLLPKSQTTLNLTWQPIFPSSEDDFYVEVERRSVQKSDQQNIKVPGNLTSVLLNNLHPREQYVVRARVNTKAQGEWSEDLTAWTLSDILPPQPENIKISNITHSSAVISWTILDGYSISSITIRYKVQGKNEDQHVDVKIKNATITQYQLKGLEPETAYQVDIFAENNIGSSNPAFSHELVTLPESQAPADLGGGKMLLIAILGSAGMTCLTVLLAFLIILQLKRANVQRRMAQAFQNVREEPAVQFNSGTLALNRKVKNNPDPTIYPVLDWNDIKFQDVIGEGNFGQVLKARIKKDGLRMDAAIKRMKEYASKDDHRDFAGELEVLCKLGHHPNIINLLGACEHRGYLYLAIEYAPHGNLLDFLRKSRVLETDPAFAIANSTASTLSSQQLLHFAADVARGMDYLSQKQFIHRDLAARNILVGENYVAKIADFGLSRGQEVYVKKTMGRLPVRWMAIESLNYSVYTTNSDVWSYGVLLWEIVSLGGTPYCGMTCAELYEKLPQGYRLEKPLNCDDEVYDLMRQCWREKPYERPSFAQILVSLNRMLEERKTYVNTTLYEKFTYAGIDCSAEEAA

As for `Clc1ccc(Nc2nnc(Cc3ccncc3)c3ccccc23)cc1` [PTK787], in series [1], the survival versus vehicle result is listed as “did not significantly improve the survival”. As to “rhAng-2: recombinant angiopoietin 2 protein”, the “formation of vascular-like structures” value in series [2] is listed as “lost their ability to form vascular-like structures”. In [3], the “vascular response in CAM” value was “dramatically decreased newly sprouting angiogenic vessels”. Also, in series [4], the “effect on Ang1-induced Tie2 phosphorylation” value is listed as “Inhibition of Tie2 phosphorylation”. Regarding `[O-][Cl+3]([O-])([O-])O` [sodium perchlorate], the “inhibition of NIS activity” value in series [5] is listed as “complete inhibition of NIS activity”. On to “HFLIIGFMRRALCGA [PEPCH1, anti-EGFRvIII peptide, FITC-labeled]”, for which the “binding to EGFRvIII-expressing cells” value in series [6] is “specific binding”. `[O]=[188Re](=[O])(=[O])[O-]` [^188ReO4, Rhenium-188 perrenate]: the “tissues with uptake of 188ReO4” value in [7] was “thyroid and stomach”. Usually IC50 stands for the midpoint of a concentration-inhibition curve. Turning to `Nc1nc(=O)[nH]cc1F` [5-FC, 5-fluorocytosine], the IC50 in [8] was 3090 mg/L (≈ 24 mM); in series [9] (Homo sapiens, U-251, 120 h, U251MG cells expressing hyCD, 5 days) it was 12.4 mg/L (≈ 0.0961 mM). In addition, the “increased sensitivity of hyCD-expressing versus parental cells to 5-FC” value in series [9] (U251MG) is on record as “approximately 3 orders of magnitude”. `Cc1ccc(NC(=O)c2ccc(CN3CCN(C)CC3)cc2)cc1Nc1nccc(-c2cccnc2)n1` [Imatinib]: in series [1], the survival versus vehicle entry was “did not significantly improve the survival”.

B1: bakers' yeast CD: cytosine deaminase previously isolated from Saccharomyces cerevisiae (protein, UniProt Q12178 1-158, looked up)
Cytosine deaminase: MVTGGMASKWDQKGMDIAYEEAALGYKEGGVPIGGCLINNKDGSVLGRGHNMRFQKGSATLHGEISTLENCGRLEGKVYKDTTLYTTLSPCDMCTGAIIMYGIPRCVVGENVNFKSKGEKYLQTRGHEVVVVDDERCKKIMKQFIDERPQDWFEDIGE
Take B1: in series [10] (4° C., pH 5-9), the “time activity is maintained in solution” value was “at least 48 hr”. Further, in series [10] (37° C., crude preparation), the “time to lose half of activity” value is 1 h.
